Test results reported in ChEMBL document CHEMBL4351009, “hERG optimizations of IMB1603, discovery of alternative benzothiazinones as new antitubercular agents” (Eur J Med Chem, 2019).
Values after ≈ are worked out from the molar mass of the structure shown.

Legend:
[1] = system: Mycobacterium tuberculosis; assay: Antimycobacterial activity against Mycobacterium tuberculosis H37Rv infected in BALB/c mouse assessed as reduction in colony forming unit in lung at 25 mg/kg, po administered once daily for 5 days a week for 3 weeks; format: functional
[2] = system: Mycobacterium tuberculosis; assay: Antimycobacterial activity against Mycobacterium tuberculosis H37Rv ATCC 27294 assessed as reduction in bacterial cell viability incubated for 7 days by microplate alamar blue assay; format: functional; conditions: H37Rv ATCC 27294, 168 h
hERG (KCNH2) = hERG (KCNH2) (Homo sapiens, UniProt Q12809); assay: Inhibition of human ERG transfected in HEK293 cells at 10 uM by whole cell patch clamp assay relative to control; format: cell-based; conditions: HEK293 cells transfected with human ERG
hERG (KCNH2), sequence (Q12809 whole entry): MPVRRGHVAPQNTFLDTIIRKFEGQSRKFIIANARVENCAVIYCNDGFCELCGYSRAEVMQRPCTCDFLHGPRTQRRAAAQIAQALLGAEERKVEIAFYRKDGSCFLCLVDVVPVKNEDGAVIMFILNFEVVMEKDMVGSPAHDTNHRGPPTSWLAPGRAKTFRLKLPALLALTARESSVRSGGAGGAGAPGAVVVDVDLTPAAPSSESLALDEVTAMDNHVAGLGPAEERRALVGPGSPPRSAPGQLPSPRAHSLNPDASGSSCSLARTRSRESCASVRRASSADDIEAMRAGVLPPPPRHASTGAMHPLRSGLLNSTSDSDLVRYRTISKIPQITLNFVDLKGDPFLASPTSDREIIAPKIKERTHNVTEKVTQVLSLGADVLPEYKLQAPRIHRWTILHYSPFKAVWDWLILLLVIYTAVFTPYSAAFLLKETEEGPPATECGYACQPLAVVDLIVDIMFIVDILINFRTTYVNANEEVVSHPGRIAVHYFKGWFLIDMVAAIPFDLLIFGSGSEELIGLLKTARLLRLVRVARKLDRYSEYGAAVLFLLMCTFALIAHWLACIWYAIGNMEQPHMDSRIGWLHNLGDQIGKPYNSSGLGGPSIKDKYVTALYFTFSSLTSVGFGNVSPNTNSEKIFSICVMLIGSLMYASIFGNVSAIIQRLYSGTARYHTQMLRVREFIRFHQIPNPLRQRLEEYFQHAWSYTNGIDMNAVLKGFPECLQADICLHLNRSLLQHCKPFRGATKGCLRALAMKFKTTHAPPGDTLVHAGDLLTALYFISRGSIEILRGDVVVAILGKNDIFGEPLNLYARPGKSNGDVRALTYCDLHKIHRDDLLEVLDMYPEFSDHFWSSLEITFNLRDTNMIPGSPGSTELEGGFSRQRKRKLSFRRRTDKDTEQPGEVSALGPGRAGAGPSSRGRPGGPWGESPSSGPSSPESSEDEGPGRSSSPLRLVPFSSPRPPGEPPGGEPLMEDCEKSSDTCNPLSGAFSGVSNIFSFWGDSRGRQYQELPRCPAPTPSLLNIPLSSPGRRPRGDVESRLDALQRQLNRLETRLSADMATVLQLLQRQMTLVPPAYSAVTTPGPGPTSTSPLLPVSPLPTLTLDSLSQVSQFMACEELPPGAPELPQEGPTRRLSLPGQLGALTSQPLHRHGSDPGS

[3] = Acute toxicity in ICR mouse assessed as mouse survival at 500 mg/kg, po observed continuously for 4 hrs and each hr for next 24 hrs and at 8 hrs interval for following 7 days; format: organism-based; conditions: in vivo
[4] = Half life in SPF ICR mouse at 25 mg/kg, po measured upto 24 hrs by HPLC analysis; format: ADME, organism-based; conditions: in vivo
[5] = Tmax in SPF ICR mouse at 25 mg/kg, po measured upto 24 hrs by HPLC analysis; format: ADME, organism-based; conditions: in vivo
[6] = Cmax in SPF ICR mouse at 25 mg/kg, po measured upto 24 hrs by HPLC analysis; format: ADME, organism-based; design: dose 25 mg/kg, route oral; conditions: in vivo
[7] = AUC (0 to t) in SPF ICR mouse at 25 mg/kg, po measured upto 24 hrs by HPLC analysis; format: ADME, organism-based; design: dose 25 mg/kg, time < 24 hr, route oral; conditions: in vivo

Row | SMILES | MIC [2] [µM] | inhibition at 10 µM (hERG (KCNH2)) [%] | further results
1 | O=c1nc(N2CCC3(CCN(Cc4ccc(F)cc4)C3)CC2)sc2c([N+](=O)[O-])cc(C(F)(F)F)cc12 | < 0.035 | 95.7 | Activity [1]: 3.2 log10CFU
2 | O=c1nc(N2CCC3(CCN(Cc4ccc(Br)cc4)CC3)CC2)sc2c([N+](=O)[O-])cc(C(F)(F)F)cc12 | < 0.035 | 97 | 
3 | O=c1nc(N2CCC3(CCN(Cc4ccc(C(F)(F)F)cc4)CC3)CC2)sc2c([N+](=O)[O-])cc(C(F)(F)F)cc12 | < 0.035 | 94.6 | 
4 | O=c1nc(N2CC3CCC2CN3Cc2ccc(F)cc2)sc2c([N+](=O)[O-])cc(C(F)(F)F)cc12 (centres undefined) | 0.078 (≈ 0.0386 µg/mL) | 34.9 | Activity [3]: Non-Toxic; half-life [4]: 75 min; Tmax [5]: 15 min; Cmax [6]: 3040 ng/mL; AUC(0-t) at 24 h [7]: 3550 ng·h/mL
5 | O=c1nc(N2CCC3(CCN(CCc4ccc(F)cc4)C3)CC2)sc2c([N+](=O)[O-])cc(C(F)(F)F)cc12 | 0.055 (≈ 0.0295 µg/mL) | 92.7 | 
6 | O=c1nc(N2CCC3(CCN(Cc4ccncc4)C3)CC2)sc2c([N+](=O)[O-])cc(C(F)(F)F)cc12 | 0.122 (≈ 0.0617 µg/mL) | 74.1 | 
7 | O=c1nc(N2CCC3(CCN(Cc4cccc(F)c4F)C3)CC2)sc2c([N+](=O)[O-])cc(C(F)(F)F)cc12 | < 0.035 | 88.5 | 
8 | Cn1cccc1CN1CCC2(CCN(c3nc(=O)c4cc(C(F)(F)F)cc([N+](=O)[O-])c4s3)CC2)C1 | 0.479 (≈ 0.243 µg/mL) |  | 
9 | O=c1nc(N2CCC3(CCN(CCCc4ccc(F)cc4)C3)CC2)sc2c([N+](=O)[O-])cc(C(F)(F)F)cc12 | < 0.035 | 85.8 | 
10 | O=c1nc(N2CCC3(CCN(Cc4ccc([N+](=O)[O-])cc4)C3)CC2)sc2c([N+](=O)[O-])cc(C(F)(F)F)cc12 | < 0.035 | 94.1 | 
11 | COc1ccc2[nH]cc(CN3CCC4(CCN(c5nc(=O)c6cc(C(F)(F)F)cc([N+](=O)[O-])c6s5)CC4)C3)c2c1 | 1.48 (≈ 0.848 µg/mL) |  | 
12 | O=c1nc(N2CCC3(CCN(Cc4ccccc4F)C3)CC2)sc2c([N+](=O)[O-])cc(C(F)(F)F)cc12 | < 0.035 | 94.9 | 
13 | N#Cc1ccc(CN2CCC3(CCN(c4nc(=O)c5cc(C(F)(F)F)cc([N+](=O)[O-])c5s4)CC3)C2)cc1 | < 0.035 | 90.6 | 
14 | O=c1nc(N2CCC3(CCN(Cc4cc(C(F)(F)F)cc(C(F)(F)F)c4)C3)CC2)sc2c([N+](=O)[O-])cc(C(F)(F)F)cc12 | < 0.035 | 83.3 | 
15 | O=c1nc(N2CCC3(CCN(Cc4cccnc4)C3)CC2)sc2c([N+](=O)[O-])cc(C(F)(F)F)cc12 | 0.235 (≈ 0.119 µg/mL) |  | 
16 | O=c1nc(N2CCC3(CCN(Cc4ccc([N+](=O)[O-])c(Br)c4)C3)CC2)sc2c([N+](=O)[O-])cc(C(F)(F)F)cc12 | < 0.035 | 88.6 | 
17 | O=c1nc(N2CCC3(CCN(Cc4cccs4)C3)CC2)sc2c([N+](=O)[O-])cc(C(F)(F)F)cc12 | < 0.035 | 96.2 | 
18 | O=c1nc(N2CCC3(CCN(c4ccc(F)cc4)C3)CC2)sc2c([N+](=O)[O-])cc(C(F)(F)F)cc12 | < 0.035 | 23 | Activity [3]: Non-Toxic; half-life [4]: 287 min; Tmax [5]: 30 min; Cmax [6]: 1610 ng/mL; AUC(0-t) at 24 h [7]: 5030 ng·h/mL

Row | SMILES | MIC [2] [µM] | inhibition at 10 µM (hERG (KCNH2)) [%] | further results
19 | CC(c1ccc(F)cc1)N1CCC2(CCN(c3nc(=O)c4cc(C(F)(F)F)cc([N+](=O)[O-])c4s3)CC2)CC1 (centres undefined) | 0.107 (≈ 0.0589 µg/mL) | 74 | 
20 | O=c1nc(N2CC3CC2CN3Cc2ccc(F)cc2)sc2c([N+](=O)[O-])cc(C(F)(F)F)cc12 (centres undefined) | < 0.035 | 94.3 | 
21 | O=c1nc(N2CCC3(CCN(Cc4ccc5ccccc5c4)C3)CC2)sc2c([N+](=O)[O-])cc(C(F)(F)F)cc12 | < 0.035 | 78.1 | 
22 | CC(c1ccc(Br)cc1)N1CCC2(CCN(c3nc(=O)c4cc(C(F)(F)F)cc([N+](=O)[O-])c4s3)CC2)CC1 (centres undefined) | < 0.035 | 77.2 | 
23 | O=c1nc(N2CCC3(CCN(Cc4cccc5ccccc45)C3)CC2)sc2c([N+](=O)[O-])cc(C(F)(F)F)cc12 | 0.055 (≈ 0.0305 µg/mL) |  | 
24 | CC(c1ccc(Cl)cc1)N1CCC2(CCN(c3nc(=O)c4cc(C(F)(F)F)cc([N+](=O)[O-])c4s3)CC2)CC1 (centres undefined) | < 0.035 | 73.4 | 
25 | O=c1nc(N2CC3CN(Cc4ccc(F)cc4)CC3C2)sc2c([N+](=O)[O-])cc(C(F)(F)F)cc12 (centres undefined) | 0.248 (≈ 0.123 µg/mL) |  | 
26 | O=c1nc(N2CCC3(CCN(Cc4ccc[nH]4)C3)CC2)sc2c([N+](=O)[O-])cc(C(F)(F)F)cc12 | 1.58 (≈ 0.778 µg/mL) |  | 
27 | CCC(c1ccc(C(F)(F)F)cc1)N1CCC2(CCN(c3nc(=O)c4cc(C(F)(F)F)cc([N+](=O)[O-])c4s3)CC2)CC1 (centres undefined) | < 0.035 | 69.7 | 
28 | O=c1nc(N2CCC3(CCN(Cc4ccccn4)C3)CC2)sc2c([N+](=O)[O-])cc(C(F)(F)F)cc12 | 0.477 (≈ 0.241 µg/mL) |  | 
29 | O=c1nc(N2CCC3(CCN(Cc4ccc(OC(F)(F)F)cc4)C3)CC2)sc2c([N+](=O)[O-])cc(C(F)(F)F)cc12 | < 0.035 | 90.2 | 
30 | CC(c1ccc(C(F)(F)F)cc1)N1CCC2(CCN(c3nc(=O)c4cc(C(F)(F)F)cc([N+](=O)[O-])c4s3)CC2)CC1 (centres undefined) | < 0.035 | 72.9 | 
31 | O=c1nc(N2CCC3(CCN(Cc4ccc(C(F)(F)F)cc4C(F)(F)F)C3)CC2)sc2c([N+](=O)[O-])cc(C(F)(F)F)cc12 | < 0.035 | 68.6 | 
32 | O=c1nc(N2CCC3(CCN(Cc4ncco4)C3)CC2)sc2c([N+](=O)[O-])cc(C(F)(F)F)cc12 | 0.248 (≈ 0.123 µg/mL) | 53.2 | 
33 | O=c1nc(N2CCN(C3CCN(Cc4ccc(F)cc4)CC3)CC2)sc2c([N+](=O)[O-])cc(C(F)(F)F)cc12 | 0.054 (≈ 0.0298 µg/mL) | 95.6 | 
34 | NNC(=O)c1ccncc1 [ISONIAZID] | 0.269 (≈ 0.0369 µg/mL) |  | 
35 | O=c1nc(N2CCN(CC3CCCCC3)CC2)sc2c([N+](=O)[O-])cc(C(F)(F)F)cc12 [MACOZINONE] | < 0.035 | 41.6 | Activity [3]: Non-Toxic; half-life [4]: 380 min; Tmax [5]: 19.8 min; Cmax [6]: 1750 ng/mL; AUC(0-t) at 24 h [7]: 2480 ng·h/mL
36 | CO[C@H]1/C=C/O[C@@]2(C)Oc3c(C)c(O)c4c(O)c(c(/C=N/N5CCN(C)CC5)c(O)c4c3C2=O)NC(=O)/C(C)=C\C=C\[C@H](C)[C@H](O)[C@@H](C)[C@@H](O)[C@@H](C)[C@H](OC(C)=O)[C@@H]1C [RIFAMPIN] | 0.164 (≈ 0.135 µg/mL) |  | 
